According to patent US10669272B2, “Substituted naphthyridinone compounds useful as T cell activators” (BRISTOL-MYERS SQUIBB COMPANY, priority 2018, dated 2020):
pIC50: −log10 of the molar value. Where two headings read alike, the source gives them in different places.

Experiments:
[1] = target: T1, human DGKα (Homo sapiens, UniProt P23743); test: DGKα LIPGLO assay (extruded liposome substrate), in vitro DGK inhibition; type: biochemical; settings: read-out: DGKa LIPGLO IC50
T1 construct: TVMV protease cleavage site (C); Hexa-His (C); made in house; host or cells: Sf9 insect cells (baculovirus, Bac-to-Bac)
T1 sequence (P23743 with tags, fused parts or gaps): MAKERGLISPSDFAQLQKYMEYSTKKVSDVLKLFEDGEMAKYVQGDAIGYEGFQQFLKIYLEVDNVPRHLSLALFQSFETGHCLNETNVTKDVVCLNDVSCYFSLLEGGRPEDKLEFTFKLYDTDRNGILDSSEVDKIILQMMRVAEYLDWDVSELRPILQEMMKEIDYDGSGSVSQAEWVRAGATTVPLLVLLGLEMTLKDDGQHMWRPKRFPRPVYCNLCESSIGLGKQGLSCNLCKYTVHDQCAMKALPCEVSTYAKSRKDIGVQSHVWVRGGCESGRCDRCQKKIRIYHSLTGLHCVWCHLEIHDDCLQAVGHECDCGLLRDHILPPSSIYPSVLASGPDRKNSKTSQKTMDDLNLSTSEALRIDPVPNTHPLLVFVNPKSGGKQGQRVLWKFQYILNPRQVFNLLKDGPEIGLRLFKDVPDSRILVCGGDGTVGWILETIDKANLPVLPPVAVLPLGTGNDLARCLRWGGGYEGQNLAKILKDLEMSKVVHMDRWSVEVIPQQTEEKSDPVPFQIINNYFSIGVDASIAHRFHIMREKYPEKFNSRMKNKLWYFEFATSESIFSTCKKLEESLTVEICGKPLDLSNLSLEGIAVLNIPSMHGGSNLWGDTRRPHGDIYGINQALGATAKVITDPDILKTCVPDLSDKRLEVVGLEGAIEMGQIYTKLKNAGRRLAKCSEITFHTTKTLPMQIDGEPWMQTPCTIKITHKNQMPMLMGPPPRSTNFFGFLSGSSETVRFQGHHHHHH

[2] = target: T2, human DGKζ (Homo sapiens, UniProt Q13574); test: DGKζ LIPGLO assay (extruded liposome substrate), in vitro DGK inhibition; type: biochemical; settings: read-out: DGKz LIPGLO IC50
T2 construct: TVMV protease cleavage site (C); Hexa-His (C); made in house; host or cells: Sf9 insect cells (baculovirus, Bac-to-Bac)
T2 sequence (Q13574 with tags, fused parts or gaps isoform Q13574-4): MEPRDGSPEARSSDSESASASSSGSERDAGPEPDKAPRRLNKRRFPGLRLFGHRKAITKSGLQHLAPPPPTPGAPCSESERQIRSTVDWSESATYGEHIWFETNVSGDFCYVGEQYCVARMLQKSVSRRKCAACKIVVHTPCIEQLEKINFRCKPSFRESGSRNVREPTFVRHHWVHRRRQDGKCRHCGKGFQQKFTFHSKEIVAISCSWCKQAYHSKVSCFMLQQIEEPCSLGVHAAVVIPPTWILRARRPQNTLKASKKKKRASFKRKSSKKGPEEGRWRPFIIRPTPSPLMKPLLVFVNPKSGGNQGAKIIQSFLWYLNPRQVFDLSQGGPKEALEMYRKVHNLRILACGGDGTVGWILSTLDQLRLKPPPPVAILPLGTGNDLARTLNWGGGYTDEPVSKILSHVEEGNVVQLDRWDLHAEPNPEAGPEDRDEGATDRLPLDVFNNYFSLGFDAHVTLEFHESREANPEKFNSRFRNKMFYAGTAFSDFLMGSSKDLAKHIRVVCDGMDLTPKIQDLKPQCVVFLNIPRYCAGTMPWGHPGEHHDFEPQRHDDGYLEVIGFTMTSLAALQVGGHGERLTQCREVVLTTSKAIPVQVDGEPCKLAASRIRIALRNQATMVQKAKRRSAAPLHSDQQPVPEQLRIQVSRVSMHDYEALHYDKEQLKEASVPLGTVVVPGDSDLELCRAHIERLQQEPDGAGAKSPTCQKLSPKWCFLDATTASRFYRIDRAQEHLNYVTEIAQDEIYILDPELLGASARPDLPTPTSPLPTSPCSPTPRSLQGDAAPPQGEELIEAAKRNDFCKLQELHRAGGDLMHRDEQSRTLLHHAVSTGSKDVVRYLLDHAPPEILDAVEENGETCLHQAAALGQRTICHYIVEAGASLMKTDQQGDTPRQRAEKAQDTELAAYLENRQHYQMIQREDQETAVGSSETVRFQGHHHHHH

Compound | pIC50 ([1]; liposome (LIPGLO) assay) | pIC50 ([2]; liposome (LIPGLO) assay) | pIC50 ([1]; DGKα liposome (LIPGLO) assay) | pIC50 ([2]; DGKζ liposome (LIPGLO) assay)
CCC(c1ccc(OC(F)(F)F)cc1)N1C[C@H](CC)N(c2cc(=O)n(C)c3ccc(C#N)nc23)C[C@H]1CC (single isomer, unassigned) [Example 1059] | 8.05 | 7.36 |  | 
C[C@@H]1CN(c2cc(=O)n(C)c3ccc(C#N)nc23)[C@@H](C)CN1Cc1ccc(OC(F)(F)F)cc1F (single isomer, unassigned) [Example 624] | 6.18 | 4.62 |  | 
CC[C@@H]1CN(c2cc(=O)n(C)c3ccc(C#N)nc23)[C@@H](C)CN1C(C)c1ccc(OC(F)(F)F)cc1F (single isomer, unassigned) [Example 1095] | 7.57 | 7.74 |  | 
C[C@@H]1CN(c2c(C#N)c(=O)n(C)c3ccc(C#N)nc23)[C@@H](C)CN1C(c1ccc(F)cc1)c1ccns1 (single isomer, unassigned) [Example 855] |  |  | 4.57 | 4.70
CC[C@H]1CN(C(c2cccc(F)c2)c2ccc(OC)cn2)[C@H](CC)CN1c1cc(=O)n(C)c2ccc(C#N)nc12 (stereo partly shown) [Example 1047] | 6.68 | 6.57 |  | 
CC(c1cccc(OC(F)F)c1)N1C[C@H](C)N(c2cc(=O)n(C)c3ccc(C#N)nc23)C[C@H]1C (single isomer, unassigned) [Example 1271] | 6.82 | 7.52 |  | 
C[C@@H]1CN(c2c(C#N)c(=O)n(C)c3ccc(C#N)nc23)CCN1C(c1ccc(Cl)cc1)c1ccc(F)cn1 (single isomer, unassigned) [Example 901] |  |  | 6.41 | 5.77
COC[C@@H]1CN(c2cc(=O)n(C)c3ccc(C#N)nc23)[C@@H](C)CN1C(C)c1ccc(OC(F)(F)F)cc1 (single isomer, unassigned) [Example 1163] | 5.00 | 5.12 |  | 
Cc1ccc(C(c2ccc(Cl)cc2)N2C[C@H](C)N(c3c(C#N)c(=O)n(C)c4ccc(C#N)nc34)C[C@H]2C)cc1 (stereo partly shown) [Example 825] |  |  | 4.64 | 5.49
CC[C@H]1CN(C(C)c2ccc(C3CC3)cc2F)[C@H](CC)CN1c1cc(=O)n(C)c2ccc(C#N)nc12 (single isomer, unassigned) [Example 1357] | 6.92 | 7.70 |  | 
CC(C)[C@H]1CN(c2c(C#N)c(=O)n(C)c3ccc(Br)nc23)CCN1C(c1ccc(F)cc1)c1ccc(F)cc1 [Example 11, (S)-4-(4-(bis(4-fluorophenyl)methyl)-3-isopropylpiperazin-1-yl)-6-bromo-1-methyl-2-oxo-1,2-dihydro-1,5-naphthyridine-3-carbonitrile] | 5.44 | 3.62 |  | 
CC(c1ccc(C#N)c(OCCN(C)C)c1)N1C[C@H](C)N(c2cc(=O)n(C)c3ccc(C#N)nc23)C[C@H]1C (single isomer, unassigned) [Example 1323] | 3.89 | 5.15 |  | 
C[C@@H]1CN(c2c(C#N)c(=O)n(C)c3ccc(C#N)nc23)CCN1C(c1ccc(Cl)cc1)c1ccc(F)cn1 (single isomer, unassigned) [Example 900] |  |  | 5.59 | 6.10
CC[C@@H]1CN(c2cc(=O)n(C)c3ccc(C#N)nc23)[C@@H](C)CN1C(c1cccc(F)c1)c1ccc(F)cn1 (single isomer, unassigned) [Example 1108] | 7.51 | 7.05 |  | 
CC(c1ccc(OC(F)(F)F)cc1)N1C[C@@H](C)N(c2cc(=O)n(C)c3ccc(C#N)nc23)C[C@@H]1CO (single isomer, unassigned) [Example 1180] | 5.12 | 5.85 |  | 
C[C@@H]1CN(c2c(C(F)F)c(=O)n(C)c3ccc(C#N)nc23)[C@@H](C)CN1Cc1ccc(OC(F)(F)F)cc1F [Example 570] | < 3.60 | < 3.60 |  | 
Cc1ccc(C(c2ccc(Cl)cn2)N2CCN(c3c(C#N)c(=O)n(C)c4ccc(C#N)nc34)C[C@H]2C)cc1 (single isomer, unassigned) [Example 936] |  |  | 6.00 | 5.48
CC[C@H]1CN(C(C)c2cc(F)c(F)c(F)c2)[C@H](C)CN1c1cc(=O)n(C)c2ccc(C#N)nc12 (single isomer, unassigned) [Example 1382] | 6.18 | 7.22 |  | 
CC(c1cccc(OC(F)F)c1)N1C[C@H](C)N(c2cc(=O)n(C)c3ccc(C#N)nc23)C[C@H]1C (single isomer, unassigned) [Example 1272] | 5.30 | 6.18 |  | 

Compound | pIC50 ([1]; liposome (LIPGLO) assay) | pIC50 ([2]; liposome (LIPGLO) assay) | pIC50 ([1]; DGKα liposome (LIPGLO) assay) | pIC50 ([2]; DGKζ liposome (LIPGLO) assay)
C[C@@H]1CN(c2cc(=O)n(C)c3ccc(C#N)nc23)[C@@H](C)CN1C(c1ccc(F)cc1)c1ccc(P(C)(C)=O)cc1 (single isomer, unassigned) [Example 1293] | 4.00 | 5.21 |  | 
Cc1ncc(C(c2ccc(Cl)cc2)N2CCN(c3c(C#N)c(=O)n(C)c4ccc(C#N)nc34)C[C@H]2C)cn1 (single isomer, unassigned) [Example 413] | 4.92 | 4.82 |  | 
C[C@@H]1CN(c2cc(=O)n(C)c3ccc(C#N)nc23)[C@@H](C)CN1C(c1ccc(F)cc1)C1CCS(=O)(=O)CC1 (single isomer, unassigned) [Example 1301] | 4.04 | 5.44 |  | 
CC[C@H]1CN(C(c2ccc(F)cc2)c2nc(C3CC3)cs2)[C@H](CC)CN1c1cc(=O)n(C)c2ccc(C#N)nc12 (stereo partly shown) [Example 1066] | 7.55 | 7.52 |  | 
CC(C)Oc1ccccc1CN1C[C@H](C)N(c2cc(=O)n(C)c3ccc(C#N)nc23)C[C@H]1C [Example 595] | 6.41 | 5.33 |  | 
C[C@@H]1CN(c2c(C#N)c(=O)n(C)c3ccc(C#N)nc23)[C@@H](C)CN1C(c1ccc(F)cc1)c1cn(C)cn1 (single isomer, unassigned) [Example 852] |  |  | 5.89 | 5.24
CC(c1ccc(C#N)c(OCCN(C)C)c1)N1C[C@H](C)N(c2cc(=O)n(C)c3ccc(C#N)nc23)C[C@H]1C (single isomer, unassigned) [Example 1322] | 3.89 | 4.28 |  | 
Cc1ccc(C(c2ccc(F)cc2Cl)N2CCN(c3c(C#N)c(=O)n(C)c4ccc(C#N)nc34)C[C@H]2C)nc1 (stereo partly shown) [Example 938] |  |  | 5.23 | 5.55
C[C@@H]1CN(c2c(C#N)c(=O)n(C)c3ccc(C#N)nc23)CCN1C(c1ccc(Cl)cc1)c1ccc(Cl)cn1 (stereo partly shown) [Example 931] |  |  | 6.10 | 5.57
C[C@@H]1CN(C(c2ccc(F)cc2)c2ccc(F)cc2)[C@@H](C)CN1c1c(C#N)c(=O)n(C)c2ccc(Br)nc12 [Example 5, 4-((2R,5S)-4-(bis(4-fluorophenyl)methyl)-2,5-dimethylpiperazin-1-yl)-6-bromo-1-methyl-2-oxo-1,2-dihydro-1,5-naphthyridine-3-carbonitrile] | 4.64 | 4.38 |  | 
C[C@@H]1CN(c2cc(=O)n(C)c3ccc(C#N)nc23)[C@@H](C)CN1C(c1ccc(Cl)cc1)c1ccc(F)c2c1OC(C)(C)C2 (single isomer, unassigned) [Example 459] | 4.44 | 5.96 |  | 
CC[C@@H]1CN(c2cc(=O)n(C)c3ccc(C#N)nc23)[C@@H](C)CN1C(C)c1ccc(Cl)cc1F (single isomer, unassigned) [Example 1353] | 6.34 | 6.29 |  | 
COC(=O)c1ccc(C(C)N2C[C@H](C)N(c3c(C#N)c(=O)n(C)c4ccc(C#N)nc34)C[C@H]2C)cc1 (single isomer, unassigned) [Example 793] |  |  | 5.16 | 4.96
COc1cc(F)ccc1C(c1ccc(F)cc1)N1C[C@H](C)N(c2c([N+](=O)[O-])c(=O)n(C)c3ccc(C#N)nc23)C[C@H]1C (single isomer, unassigned) [Example 121] | 3.62 | 4.28 |  | 
C[C@@H]1CN(c2cc(=O)n(C)c3ccc(C#N)nc23)[C@@H](C)CN1Cc1nnc(C(F)(F)F)o1 [Example 1436] | 4.96 | 5.25 |  | 
C[C@@H]1CN(c2cc(=O)n(C)c3ccc(C#N)nc23)[C@@H](C)CN1Cc1cccc(N(C)C)c1 [Example 573] | 5.37 | 6.19 |  | 
CC(c1ccc(OC(F)F)cc1)N1C[C@H](C)N(c2c(C#N)c(=O)n(C)c3ccc(C#N)nc23)C[C@H]1C (single isomer, unassigned) [Example 1376] | 6.08 | 4.77 |  | 
C[C@@H]1CN(c2cc(=O)n(C)c3ccc(C#N)nc23)[C@@H](C)CN1C(c1ccc(F)cc1)c1cccnn1 (single isomer, unassigned) [Example 384] | 5.82 | 5.16 |  | 
C[C@@H]1CN(c2c(C#N)c(=O)n(C)c3ccc(C#N)nc23)CCN1C(c1ccc(Cl)cc1)c1ccncn1 (single isomer, unassigned) [Example 320] | 5.03 | 4.55 |  | 
